Source: patent US10493060B2, “Spirocyclic compounds” (ZENO ROYALTIES & MILESTONES, LLC, priority 2015, dated 2019)

Assays:
Activated ERK1 = Activated ERK1 (Homo sapiens (Human), UniProt P27361); test: Active ERK1 kinase assay (Mobility Shift Assay); type: biochemical
Method in brief: (§1)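 ERK1 or ERK2 premixed with compound for 30 min at rt in 20 mM HEPES pH7.5, 0.01% Triton X-100, 2 mM DTT; reaction started with Fl-substrate, ATP and metal, run 1 h at rt. Microfluidic mobility-shift separation of product and substrate peptides; activity as P/(P+S) from peak heights.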

Activated ERK2 = Activated ERK2 (Homo sapiens (Human), UniProt P28482); test: Active ERK2 kinase assay (Mobility Shift Assay); type: biochemical
Sequence of Activated ERK2 (P28482 whole entry): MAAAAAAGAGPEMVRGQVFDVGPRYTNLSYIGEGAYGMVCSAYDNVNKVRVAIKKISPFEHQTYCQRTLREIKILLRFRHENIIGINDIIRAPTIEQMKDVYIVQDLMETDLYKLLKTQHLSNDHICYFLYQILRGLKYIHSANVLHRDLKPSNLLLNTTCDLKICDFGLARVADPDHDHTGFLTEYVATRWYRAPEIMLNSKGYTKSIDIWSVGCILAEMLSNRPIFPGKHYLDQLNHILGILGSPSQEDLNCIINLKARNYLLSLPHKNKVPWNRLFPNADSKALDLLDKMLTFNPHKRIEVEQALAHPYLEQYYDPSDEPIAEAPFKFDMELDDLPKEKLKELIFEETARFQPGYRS
Method in brief: as §1

A375 (melanoma) cells = test: Proliferation assay (CellTiter-Glo), A375; type: cell-based; details: Homo sapiens, A-375, 72 h, 3 days
Experimental: (§2) A375 (melanoma), Colo-205 (colon cancer), Miapaca (pancreatic), HPAFII (pancreatic), sNF02.0 (neurofibromatosis type 1), sNF96.2 (neurofibromatosis type 1) and 8505 (Thyroid) cells were grown and maintained in RPMI-1640 medium containing 100 U/mL penicillin-streptomycin and 10% fetal bovine serum. Cells were in growth medium in 96-well opaque-walled clear bottom plates and incubated the in the CO2 incubator overnight before treatment. Cells were treated with compounds diluted in DMSO and a 10 point 3-fold serial dilutions were done. Plates were placed in 37° C., 5% CO2 for to incubate for 3 days. Before they were developed by adding 100 μL of CellTiter-Glo reagent (Promega) to the assay plate, plates were shaken briefly for 2 mins and allowed to incubate at rt for 10 mins. The bottom of the plates was pasted with white back seal and luminescence was recorded with Flexstation3 with setting of luminescence, integration time 500 ms.

[1] = test system: Colo-205 (colon cancer) cells; test: Proliferation assay (CellTiter-Glo), Colo-205; type: cell-based; details: Homo sapiens, COLO 205, 72 h, Colo205 cells, 3 days
Experimental: as §2

[2] = test system: Mia Paca-2 (pancreatic) cells; test: Proliferation assay (CellTiter-Glo), Mia Paca-2; type: cell-based; details: Homo sapiens, 72 h, Mia Paca-2 cells, 3 days
Experimental: as §2

[3] = test system: HPAFII (pancreatic) cells; test: Proliferation assay (CellTiter-Glo), HPAFII; type: cell-based; details: Homo sapiens, HPAF-II, 72 h, 3 days
Experimental: as §2

[4] = test system: sNF02.2 (neurofibromatosis type 1) cells; test: Proliferation assay (CellTiter-Glo), sNF02.2; type: cell-based; details: 72 h, sNF02.2 cells, 3 days
Experimental: as §2

[5] = test system: sNF96.2 (neurofibromatosis type 1) cells; test: Proliferation assay (CellTiter-Glo), sNF96.2; type: cell-based; details: 72 h, sNF96.2 cells, 3 days
Experimental: as §2

8505C (Thyroid) cells = test: Proliferation assay (CellTiter-Glo), 8505C; type: cell-based; details: Homo sapiens, 72 h, 8505C cells, 3 days
Experimental: as §2

Sequence of Activated ERK1 (P27361 whole entry): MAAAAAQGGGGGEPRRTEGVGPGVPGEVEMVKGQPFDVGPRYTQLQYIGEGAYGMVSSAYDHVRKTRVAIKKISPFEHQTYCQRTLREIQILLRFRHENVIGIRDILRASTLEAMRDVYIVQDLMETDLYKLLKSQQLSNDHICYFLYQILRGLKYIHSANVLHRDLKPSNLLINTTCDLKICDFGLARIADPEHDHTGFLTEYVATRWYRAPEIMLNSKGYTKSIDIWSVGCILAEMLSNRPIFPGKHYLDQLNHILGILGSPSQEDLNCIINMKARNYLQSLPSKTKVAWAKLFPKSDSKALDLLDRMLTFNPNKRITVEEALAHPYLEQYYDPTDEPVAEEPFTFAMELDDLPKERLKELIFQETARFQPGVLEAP

SMILES | IC50 (Activated ERK1) [nM] | IC50 (Activated ERK2) [nM] | IC50 (A375 (melanoma) cells) [nM] | IC50 [1] [nM] | IC50 [2] [nM] | IC50 [3] [nM] | IC50 [4] [nM] | IC50 [5] [nM] | IC50 (8505C (Thyroid) cells) [nM]
Cc1cc(-c2n[nH]c3ccc(N4CC[C@]5(CCN(CC(=O)N6CC=C(c7ccc(-c8ncn(C)n8)cc7)CC6)C5)C4=O)cc23)ccn1 [Example 8, (S)-7-(2-(4-(4-(1-Methyl-1H-1,2,4-triazol-3-yl)phenyl)-3,6-dihydropyridin-1(2H)-yl)-2-oxoethyl)-2-(3-(2-methylpyridin-4-yl)-1H-indazol-5-yl)-2,7-diazaspiro[4.4]nonan-1-one] | ≤ 50 | ≤ 50 | ≤ 500 | ≤ 500 | ≤ 500 | ≤ 500 | ≤ 500 | ≤ 500 | ≤ 500
CC(C)Oc1ccc(-c2n[nH]c3ccc(N4CC[C@]5(CCN(CC(=O)N6CC=C(c7ccc(-c8ncn(C)n8)cc7)CC6)C5)C4=O)cc23)cn1 [Example 10, (S)-2-(3-(6-Isopropoxypyridin-3-yl)-1H-indazol-5-yl)-7-(2-(4-(4-(1-methyl-1H-1,2,4-triazol-3-yl)phenyl)-3,6-dihydropyridin-1 (2H)-yl)-2-oxoethyl)-2,7-diazaspiro[4.4]nonan-1-one] | ≤ 50 | ≤ 50 | ≤ 500 | ≤ 500 | ≤ 500 | ≤ 500 | ≥ 1000 | 500 to 1000 | ≥ 1000
